ChEMBL document CHEMBL3885861, “Open TG-GATES”

Species on record: Rattus norvegicus
Assay: Open TG-GATES - Regimen: Single
Format: toxicity, organism-based, Sprague-Dawley
Parameters: regimen Single, gender Male, age 6 weeks
Conditions: in vivo, po, 0 mg/kg, route gavage, dose level Control; for APTT / Bas / Eos / Fbg / Hb / Ht / Lym / MCH / MCHC / MCV / Mono / Neu / PT / Plat / RBC / Ret / WBC: tissue Blood; for KIDNEY_L / KIDNEY_R / KIDNEY_TOTAL: tissue Kidney; for LIVER: tissue Liver; for A/G / ALP / ALT / AST / BUN / CRE / Ca / Cl / DBIL / GLC / IP / K / LDH / Na / PL / RALB / TBIL / TC / TG / TP / gamma-GTP: tissue Plasma

Structure (SMILES): Cc1cccc(Nc2ccccc2C(=O)O)c1C [MEFENAMIC ACID]
- TERMINAL_BW (3 h): 216.3 g
- APTT (3 h): 18.2 s
- Bas (3 h): 0%
- Eos (3 h): 1%
- Fbg (3 h): 217.8 mg/dL
- Hb (3 h): 13.2 g/dL
- Ht (3 h): 37.1%
- Lym (3 h): 77.8%
- MCH (3 h): 21.9 pg
- MCHC (3 h): 35.5%
- MCV (3 h): 61.9 fL
- Mono (3 h): 2.4%
- Neu (3 h): 16.4%
- PT (3 h): 12.4 s
- Plat (3 h): 117.6 x10_4/uL
- RBC (3 h): 600.2 x10_4/ul
- Ret (3 h): 7.4%
- WBC (3 h): 74.9 x10_2/uL
- KIDNEY_L (3 h): 1 g
- KIDNEY_R (3 h): 1 g
- KIDNEY_TOTAL (3 h): 1.9 g
- LIVER (3 h): 9.7 g
- A/G (3 h): 1.7
- ALP (3 h): 1061 IU/L
- ALT (3 h): 35 IU/L
- AST (3 h): 67 IU/L
- BUN (3 h): 10.8 mg/dL
- CRE (3 h): 0.4 mg/dL
- Ca (3 h): 10.9 mg/dL
- Cl (3 h): 103 meq/L
- DBIL (3 h): 0.078 mg/dL
- GLC (3 h): 190.4 mg/dL
- IP (3 h): 9 mg/dL
- K (3 h): 4.1 meq/L
- LDH (3 h): 213 IU/L
- Na (3 h): 140.8 meq/L
- PL (3 h): 145.8 mg/dL
- RALB (3 h): 3.5 g/dL
- TBIL (3 h): 0.1 mg/dL
- TC (3 h): 80 mg/dL
- TG (3 h): 49 mg/dL
- TP (3 h): 5.6 g/dL
- gamma-GTP (3 h): 1.2 IU/L
- TERMINAL_BW (6 h): 214.5 g
- APTT (6 h): 18.6 s
- Bas (6 h): 0%
- Eos (6 h): 1%
- Fbg (6 h): 219.4 mg/dL
- Hb (6 h): 13.2 g/dL
- Ht (6 h): 37.2%
- Lym (6 h): 80.6%
- MCH (6 h): 22 pg
- MCHC (6 h): 35.5%
- MCV (6 h): 61.9 fL
- Mono (6 h): 2.4%
- Neu (6 h): 15%
- PT (6 h): 13 s
- Plat (6 h): 107.7 x10_4/uL
- RBC (6 h): 601.8 x10_4/ul
- Ret (6 h): 7.8%
- WBC (6 h): 87.4 x10_2/uL
- KIDNEY_L (6 h): 1 g
- KIDNEY_R (6 h): 1 g
- KIDNEY_TOTAL (6 h): 2 g
- LIVER (6 h): 8.8 g
- A/G (6 h): 1.6
- ALP (6 h): 898.6 IU/L
- ALT (6 h): 36.8 IU/L
- AST (6 h): 65.4 IU/L
- BUN (6 h): 8.6 mg/dL
- CRE (6 h): 0.3 mg/dL
- Ca (6 h): 10.3 mg/dL
- Cl (6 h): 102.8 meq/L
- DBIL (6 h): 0.062 mg/dL
- GLC (6 h): 183.4 mg/dL
- IP (6 h): 8.9 mg/dL
- K (6 h): 4.2 meq/L
- LDH (6 h): 172 IU/L
- Na (6 h): 139.6 meq/L
- PL (6 h): 134.6 mg/dL
- RALB (6 h): 3.3 g/dL
- TBIL (6 h): 0.1 mg/dL
- TC (6 h): 79.4 mg/dL
- TG (6 h): 39.8 mg/dL
- TP (6 h): 5.4 g/dL
- gamma-GTP (6 h): 1 IU/L
- TERMINAL_BW (9 h): 214.7 g
- APTT (9 h): 18.8 s
- Bas (9 h): 0%
- Eos (9 h): 1%
- Fbg (9 h): 228.8 mg/dL
- Hb (9 h): 13.6 g/dL
- Ht (9 h): 38.3%
- Lym (9 h): 78.6%
- MCH (9 h): 22.2 pg
- MCHC (9 h): 35.6%
- MCV (9 h): 62.6 fL
- Mono (9 h): 2.2%
- Neu (9 h): 17.2%
- PT (9 h): 12.8 s
- Plat (9 h): 106.8 x10_4/uL
- RBC (9 h): 613 x10_4/ul
- Ret (9 h): 7.1%
- WBC (9 h): 75.3 x10_2/uL
- KIDNEY_L (9 h): 1 g
- KIDNEY_R (9 h): 1 g
- KIDNEY_TOTAL (9 h): 2 g
- LIVER (9 h): 8.7 g
- A/G (9 h): 1.7
- ALP (9 h): 891.2 IU/L
- ALT (9 h): 32.6 IU/L
- AST (9 h): 64.2 IU/L
- BUN (9 h): 10.6 mg/dL
- CRE (9 h): 0.3 mg/dL
- Ca (9 h): 10.4 mg/dL
- Cl (9 h): 102.8 meq/L
- DBIL (9 h): 0.074 mg/dL
- GLC (9 h): 202.6 mg/dL
- IP (9 h): 8.9 mg/dL
- K (9 h): 3.8 meq/L
- LDH (9 h): 187.4 IU/L
- Na (9 h): 141 meq/L
- PL (9 h): 136.4 mg/dL
- RALB (9 h): 3.5 g/dL
- TBIL (9 h): 0.1 mg/dL
- TC (9 h): 75.2 mg/dL
- TG (9 h): 55.4 mg/dL
- TP (9 h): 5.6 g/dL
- gamma-GTP (9 h): 1 IU/L
- TERMINAL_BW (24 h): 229.4 g
- APTT (24 h): 18 s
- Bas (24 h): 0%
- Eos (24 h): 1%
- Fbg (24 h): 214.8 mg/dL
- Hb (24 h): 13.4 g/dL
- Ht (24 h): 38.5%
- Lym (24 h): 79.2%
- MCH (24 h): 22.4 pg
- MCHC (24 h): 34.8%
- MCV (24 h): 64.2 fL
- Mono (24 h): 2%
- Neu (24 h): 16.4%
- PT (24 h): 12 s
- Plat (24 h): 116.5 x10_4/uL
- RBC (24 h): 599.6 x10_4/ul
- Ret (24 h): 6.7%
- WBC (24 h): 80 x10_2/uL
- KIDNEY_L (24 h): 1 g
- KIDNEY_R (24 h): 1 g
- KIDNEY_TOTAL (24 h): 2.1 g
- LIVER (24 h): 11.1 g
- A/G (24 h): 1.5
- ALP (24 h): 943.6 IU/L
- ALT (24 h): 39 IU/L
- AST (24 h): 66 IU/L
- BUN (24 h): 13.6 mg/dL
- CRE (24 h): 0.4 mg/dL
- Ca (24 h): 10.9 mg/dL
- Cl (24 h): 102.8 meq/L
- DBIL (24 h): 0.1 mg/dL
- GLC (24 h): 193.2 mg/dL
- IP (24 h): 7.9 mg/dL
- K (24 h): 4.1 meq/L
- LDH (24 h): 223.6 IU/L
- Na (24 h): 140.2 meq/L
- PL (24 h): 147.8 mg/dL
- RALB (24 h): 3.4 g/dL
- TBIL (24 h): 0.2 mg/dL
- TC (24 h): 74.6 mg/dL
- TG (24 h): 120.4 mg/dL
- TP (24 h): 5.7 g/dL
- gamma-GTP (24 h): 1.4 IU/L
